Source: ChEMBL document CHEMBL1145977, “Synthesis and dopamine receptor modulating activity of 3-substituted gamma-lactam peptidomimetics of L-prolyl-L-leucyl-glycinamide” (J Med Chem, 2003)

Experiments:
Type in all cases: functional
[1] = species: Bos taurus; test: Percent enhancement of [3H]NPE binding to bovine striatal membranes at 100 nM concentration; settings: Striatum, Membrane
[2] = biological target: T1, Dopamine receptor (Rattus norvegicus) (UniProt P25115+P19020+P30729+P18901+P61169); test: Dopamine receptor modulating activity of compound was evaluated by rat nigrostriatal 6-hydroxydopamine lesion rotation model at dose of 0.1 ug/kg given intraperitoneally
[3] = biological target: T1, Dopamine receptor (Rattus norvegicus); test: Dopamine receptor modulating activity of compound was evaluated by rat nigrostriatal 6-hydroxydopamine lesion rotation model at dose of 1 ug/kg given intraperitoneally

Compound | Enhancement [1] [%] | further results
NC(=O)CN1CC[C@@](Cc2ccccc2)(NC(=O)[C@@H]2CCCN2)C1=O | 116 | 
CCCC[C@@]1(NC(=O)[C@@H]2CCCN2)CCN(CC(N)=O)C1=O | 89 | 
CCCC[C@@]1(NC(=O)[C@@H]2CCCN2)C[C@H]2SC[C@H](C(N)=O)N2C1=O |  | Enhancement [2]: 56%
CC(C)C[C@@]1(NC(=O)[C@@H]2CCCN2)CCN(CC(N)=O)C1=O | 59 | 
NC(=O)[C@H]1CS[C@@H]2C[C@@](Cc3ccccc3)(NC(=O)[C@@H]3CCCN3)C(=O)N12 |  | Enhancement [3]: 30%
NC(=O)CN1CC[C@@H](NC(=O)[C@@H]2CCCN2)C1=O | 36 | 
NC(=O)[C@H]1CS[C@@H]2C[C@@H](NC(=O)[C@@H]3CCCN3)C(=O)N12 |  | Enhancement [2]: 23%
CC(C)C[C@@]1(NC(=O)[C@@H]2CCCN2)C[C@H]2SC[C@H](C(N)=O)N2C1=O |  | Enhancement [3]: 44%
